The values below come from patent US12428428B2, “Tricyclic tetrahydroisoquinoline derivative, preparation method therefor and application thereof in medicine” (JIANGSU HENGRUI MEDICINE CO., LTD., priority 2020, dated 2025).

Common to all, as to type: in vitro ADME
Data set [1] addresses T1, CYP3A4 (Homo sapiens (Human), UniProt P08684). Put plainly: Inhibition of site of metabolism of testosterone in human liver microsome CYP3A4. To be noted: testosterone substrate. The procedure: • 1. Phosphate buffer (20×PBS, purchased from Sangon); • 2. NADPH (ACROS, A2646-71-1); • 3. Human liver microsome (Corning Gentest, Cat No, 452161, Lot No. 905002, Donor36); • 4. ABI QTrap 4000 LC-MS System (AB Sciex); • 5. ZORBAX Extend-C18, 3×50 mm, 3.5 μm (Agilent, USA); • 6. CYP probe substrate (testosterone, Vocko, CAS No. [58-22-0]/75 μM) and positive control inhibitor (ketoconazole, SIGMA, Cat No. K1003-100MG).
A 100 mM PBS buffer was prepared. […]. A 0.25 mg/mL microsome solution, a 7.5 mM MgCl2 and a 5 mM NADPH solution were prepared using the buffer. A 30 mM stock solution was diluted with DMSO to obtain 30 mM, 10 mM, 3 mM, 1 mM, 0.3 mM, 0.03 mM, 0.003 mM and 0 mM serial solutions I, which were further diluted 200-fold with phosphate buffer (PBS) to obtain serial test solutions II (150, 50, 15, 5, 1.5, 0.15, 0.015 and 0 μM). A testosterone working solution was diluted with PBS to […].
40 μL of a 0.25 mg/mL microsome solution prepared in 7.5 mM MgCl2 and 20 μL of each of the 375 μM testosterone working solution and the compound working solutions (150, 50, 15, 5, 1.5, 0.15, 0.015 and 0 μM) were measured out and well mixed. Ketoconazole at the same concentration was used in place of the compounds as a positive control group. The mixtures were pre-incubated […] at 37° C. for 5 min at the same time. After 5 minutes, 20 μL of NADPH was added to each well to start reactions. The mixtures were incubated for 30 min. After 30 minutes, 250 μL of internal standard-containing acetonitrile was added to all the samples. The mixtures were well mixed, shaken at 800 rpm for 10 min, and then centrifuged at 3700 rpm for 10 min. 100 μL of the supernatant and 80 μL of ultrapure water were well mixed and subjected to LC-MS/MS analysis.
The IC50 values of the drugs for the site of metabolism of testosterone in CYP3A4 were calculated using Graphpad Prism and are shown in Table 6.

For data set [2], the target named is T1, CYP3A4. Briefly: Time-dependent inhibition of site of metabolism of midazolam in human liver microsome CYP3A4. To be noted: midazolam substrate; for IC50 shift at 30 min: human, human liver microsomes, probe midazolam (3 µM). The method, then: • 1. Phosphate buffer (20×PBS, purchased from Sangon); • 2. NADPH (ACROS, A2646-71-1); • 3. Human liver microsome (Corning Gentest, Cat No, 452161, Lot No. 9050002, Donor, 36); • 4. ABI QTrap 4000 LC-MS System (AB Sciex); • 5. ZORBAX Extend-C18, 3×50 mm, 3.5 μm (Agilent, USA); • 6. CYP probe substrate (midazolam, TRC, M343000/3 μM) and positive control inhibitor (verapamil, Adamas Reagent Co, Ltd, Cat No. 25904A).
(§1) A 100 mM PBS buffer was prepared. A 0.25 mg/mL microsome solution, a 7.5 mM MgCl2 and a 5 mM NADPH solution were prepared using the buffer. A 30 mM stock solution was diluted with DMSO to obtain 30 mM, 10 mM, 3 mM, 1 mM, 0.3 mM, 0.1 mM, 0.03 mM and 0 mM serial solutions I, which were further diluted 200-fold with phosphate buffer (PBS) to obtain serial test solutions II (150, 50, 15, 5, 1.5, 0.5, 0.15 and 0 μM). A midazolam working solution was diluted with PBS to 15 μM.
(§2) The serial test solutions prepared above were well mixed by shaking and aliquoted in 20 μL portions into corresponding reaction plates (+NADPH, T0 and −NADPH groups were set). Three parallel tests were set. 40 μL of the liver microsome working solution was added to each 96-well plate. 20 μL of a corresponding substrate solution was added to the T0 plate. 20 μL of NADPH was added to the TO plate and +NADPH group. A timer was started, and the plates were incubated in a water bath at 37° C. After 30 min of incubation, the TO plate was taken out, and the reaction was terminated with 250 μL of an internal standard-containing ACN solution. The +NADPH group was supplemented with 20 μL of the corresponding substrate solution, and the −NADPH group was supplemented with 20 μL of the corresponding substrate solution and […]. A timer was started, and the plates were incubated in a water bath at 37° C. After 30 min of incubation, the plates were taken out, and the reactions were terminated with 250 μL of an internal standard-containing ACN solution. Then the plates were shaken on a shaker at 800 rpm for 10 min and centrifuged at 4000 rpm for 15 min. 100 μL of the supernatant and 80 μL of ultrapure water were well mixed and subjected to LC-MS/MS analysis.
The IC50 values of the drugs for the site of metabolism of midazolam in CYP3A4 were calculated using Graphpad Prism and are shown in Table 7.
(In general: Liver microsomes are a subcellular fraction often used to study metabolism.)

For data set [3], the target named is T1, CYP3A4. Put plainly: Time-dependent inhibition of site of metabolism of testosterone in human liver microsome CYP3A4. To be noted: testosterone substrate; for IC50 shift at 30 min: human, human liver microsomes, probe testosterone (75 µM). The procedure:
• 1. Phosphate buffer (20×PBS, purchased from Sangon); • 2. NADPH (ACROS, A2646-71-1); • 3. Human liver microsome (Corning Gentest, Cat No, 452161, Lot No. 905002, Donor36); • 4. ABI QTrap 4000 LC-MS System (AB Sciex); • 5. ZORBAX Extend-C18, 3×50 mm, 3.5 μm (Agilent, USA); • 6. CYP probe substrate (testosterone, Vocko, CAS No. [58-22-0]/75 μM) and positive control inhibitor (verapamil, Adamas Reagent Co Ltd, Cat No. 25904A).
as §1, §2
The IC50 values of the drugs for the site of metabolism of testosterone in CYP3A4 were calculated using Graphpad Prism and are shown in Table 8.

Setting [4] is: 30 min pre-incubation with NADPH.

A word on the IC50: it is the point on the concentration scale where inhibition reaches its midpoint. Low values mean greater potency, high ones weaker potency.

A value given as a limit tells only on which side of the number the result lay.

T1 sequence (P08684 whole entry): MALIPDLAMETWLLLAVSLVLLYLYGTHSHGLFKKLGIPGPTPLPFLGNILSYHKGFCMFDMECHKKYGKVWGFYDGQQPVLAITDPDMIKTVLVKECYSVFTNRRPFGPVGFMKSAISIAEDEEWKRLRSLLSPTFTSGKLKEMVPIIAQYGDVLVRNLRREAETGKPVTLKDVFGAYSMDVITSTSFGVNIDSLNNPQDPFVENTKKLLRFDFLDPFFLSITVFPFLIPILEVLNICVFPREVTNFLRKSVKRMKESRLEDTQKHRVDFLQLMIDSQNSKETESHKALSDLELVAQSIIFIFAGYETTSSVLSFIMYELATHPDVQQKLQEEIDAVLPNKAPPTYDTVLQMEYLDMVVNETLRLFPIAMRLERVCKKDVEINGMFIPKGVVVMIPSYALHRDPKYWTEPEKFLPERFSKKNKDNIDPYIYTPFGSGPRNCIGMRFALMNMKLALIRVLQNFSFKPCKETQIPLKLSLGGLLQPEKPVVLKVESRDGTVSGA

Take `C[C@@H]1Cc2cc3c(cc2[C@@H](c2ccc(N[C@H]4CCN(CCCF)C4)cc2)N1CC(F)(F)F)OCO3` [Example 1, (S)-1-(3-fluoropropyl)-N-(4-((5R,7R)-7-methyl-6-(2,2,2-trifluoroethyl)-5,6,7,8-tetrahydro-[1,3]dioxolo[4,5-g]isoquinolin-5-yl)phenyl)pyrrolidin-3-amine]: the IC50 in data set [1] was 7.31 µM.

The compound `C[C@@H]1Cc2cc3c(cc2[C@@H](c2ccc(N[C@H]4CCN(CCCF)C4)cc2)N1CC(F)(F)CO)OCO3` [Example 3, 2,2-Difluoro-3-((5R,7R)-5-(4-(((S)-1-(3-fluoropropyl)pyrrolidin-3-yl)amino)phenyl)-7-methyl-7,8-dihydro-[1,3]dioxolo[4,5-g]isoquinolin-6(5H)-yl)propan-1-ol] yielded an IC50 in data set [1] of 14.6 µM.

Turning to `C[C@@H]1Cc2cc3c(cc2[C@@H](c2c(F)cc(N[C@H]4CCN(CCCF)C4)cc2F)N1CC(F)(F)F)OCO3` [Example 2, (S)—N-(3,5-difluoro-4-((5S,7R)-7-methyl-6-(2,2,2-trifluoroethyl)-5,6,7,8-tetrahydro-[1,3]dioxolo[4,5-g]isoquinolin-5-yl)phenyl)-1-(3-fluoropropyl)pyrrolidin-3-amine], in data set [1], the IC50 was over 30 µM.

Regarding `[2H]C1([2H])Oc2cc3c(cc2O1)[C@@H](c1ccc(N[C@H]2CCN(CCCF)C2)cn1)N(CC(F)(F)CO)[C@H](C)C3` [Example 12, 2,2-Difluoro-3-((5S,7R)-5-(5-(((S)-1-(3-fluoropropyl)pyrrolidin-3-yl)amino)pyridin-2-yl)-7-methyl-7,8-dihydro-[1,3]dioxolo[4,5-g]isoquinolin-6(5H)-yl-2,2-d2)propan-1-ol], the IC50 in data set [1] amounted to 23.8 µM; in data set [2] (setting [4]), 9.16 µM; in data set [2] (pre-incubation without NADPH), 10.2 µM; in data set [3] (setting [4]), 11.6 µM; in data set [3] (pre-incubation without NADPH) it was 25.2 µM. Moreover, the results for the IC50 shift at 30 min in data set [2] and in data set [3] were 0.9 and 0.5, respectively.

On to `C[C@@H]1Cc2cc3c(cc2[C@@H](c2ccc(N[C@H]4CCN(CCCF)C4)cn2)N1CC(F)(F)CO)OCO3` [Example 4, 2,2-Difluoro-3-((5S,7R)-5-(5-(((S)-1-(3-fluoropropyl)pyrrolidin-3-yl)amino)pyridin-2-yl)-7-methyl-7,8-dihydro-[1,3]dioxolo[4,5-g]isoquinolin-6(5H)-yl)propan-1-ol], for which the IC50 was 15.5 µM in data set [1]; 2.43 µM in data set [2] (setting [4]); 2.47 µM in data set [2] (pre-incubation without NADPH); 2.4 µM in data set [3] (setting [4]); 2.5 µM in data set [3] (pre-incubation without NADPH). For the same compound, the IC50 shift at 30 min in data set [2] and in data set [3] was 1 each time.

Take `[2H]C1([2H])Oc2cc3c(cc2O1)[C@@H](c1ccc(NC2CN(CCCF)C2)cn1)N(CC(F)(F)CO)[C@H](C)C3` [Example 13, 2,2-Difluoro-3-((5S,7R)-5-(5-((1-(3-fluoropropyl)azetidin-3-yl)amino)pyridin-2-yl)-7-methyl-7,8-dihydro-[1,3]dioxolo[4,5-g]isoquinolin-6(5H)-yl-2,2-d2)propan-1-ol]: in data set [3], the “IC50 Shift” value is “No TDI”.
